# Experimental data taken from patent US20250281424A1 (New York Blood Center, Inc, priority 2020, published 2025).
# Molecular target: T1, human PF4 (Homo sapiens, UniProt P02776)
# T1 construct: PF4 is a 70 amino acid, lysine-rich 7.8 kDa platelet-specific protein; made in house; host or cells: Escherichia coli BL21DE3 pLysS (pT7-7) and/or Drosophila S2 cells
# T1 sequence (P02776 32-101): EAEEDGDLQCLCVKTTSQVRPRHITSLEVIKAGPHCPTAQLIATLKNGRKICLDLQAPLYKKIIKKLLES
# Experiment: Inhibition of PF4 tetramer formation (BS3 cross-linking, SDS-PAGE)
# Format: biochemical
# Details: for IC50: read-out: IC50 of PF4 tetramer formation inhibition
# In short: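 Monomer, dimer, trimer and tetramer fractions were quantified by densitometry after reducing 12% SDS-PAGE of BS3-cross-linked (0.2 mM, 30 min, room temperature) PF4. Before cross-linking, 10 μg/ml E. coli-expressed human WT PF4 in PBS was exposed to compound for 15 min at 37° C or 60 min at room temperature; controls lacked compound.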
# [1] = 1 μM inhibitor, read-out: % inhibition of PF4 tetramer formation at single concentration of inhibitor
# [2] = 3 μM inhibitor (column A), read-out: % inhibition of PF4 tetramer formation at single concentration of inhibitor
inhibition at 3 µM [2],SMILES,inhibition at 1 µM [1],further results
55%,"O=C1c2ccc(Oc3ccc4c(c3)C(=O)C(C(=O)[C@H]3CCCN3)C4=O)cc2C(=O)C1C(=O)[C@@H]1CCNC1 (stereo partly drawn) [Example 356, 5-({1,3-dioxo-2-[(3R)-pyrrolidine-3-carbonyl]-2,3-dihydro-1H-inden-5-yl}oxy)-2-[(2R)-pyrrolidine-2-carbonyl]-2,3-dihydro-1H-indene-1,3-dione]",18%,–
6%,"COCCOCCN(CC(=O)C1C(=O)c2ccc(C(=O)c3ccc4c(c3)C(=O)C(C(=O)CN(CCOCCOC)C(=O)OC(C)(C)C)C4=O)cc2C1=O)C(=O)OC(C)(C)C (stereo not shown) [Example 391, tert-butyl N-[2-(5-{2-[2-(11,11-dimethyl-9-oxo-2,5,10-trioxa-8-azadodecan-8-yl)acetyl]-1,3-dioxo-2,3-dihydro-1H-indene-5-carbonyl}-1,3-dioxo-2,3-dihydro-1H-inden-2-yl)-2-oxoethyl]-N-[2-(2-methoxyethoxy)ethyl]carbamate]",1%,–
63%,"CS(=O)(=O)N1CCC(NC(=O)C2C(=O)c3ccc(C(=O)c4ccc5c(c4)C(=O)C(C(=O)NC4CCN(S(C)(=O)=O)CC4)C5=O)cc3C2=O)CC1 (stereo not shown) [Example 365, N-(1-methanesulfonylpiperidin-4-yl)-5-{2-[(1-methanesulfonylpiperidin-4-yl)carbamoyl]-1,3-dioxo-2,3-dihydro-1H-indene-5-carbonyl}-1,3-dioxo-2,3-dihydro-1H-indene-2-carboxamide]",27%,IC50: 3390 nM
100%,"O=C(c1ccc2c(c1)C(=O)C(C(=O)Cc1ccncc1)C2=O)c1ccc2c(c1)C(=O)C(C(=O)Cc1ccncc1)C2=O (stereo not shown) [Example 239, 5-{1,3-dioxo-2-[2-(pyridin-4-yl)acetyl]-2,3-dihydro-1H-indene-5-carbonyl}-2-[2-(pyridin-4-yl)acetyl]-2,3-dihydro-1H-indene-1,3-dione]",–,–

# Further lines, the compound ahead of its results:
SMILES,inhibition at 3 µM [2],inhibition at 1 µM [1],further results
"CC(C)(C)OC(=O)NCCC(=O)C1C(=O)c2ccc(C(=O)c3ccc4c(c3)C(=O)C(C(=O)CCNC(=O)OC(C)(C)C)C4=O)cc2C1=O (stereo not shown) [Example 268, tert-butyl N-(3-{5-[2-(3-{[(tert-butoxy)carbonyl]amino}propanoyl)-1,3-dioxo-2,3-dihydro-1H-indene-5-carbonyl]-1,3-dioxo-2,3-dihydro-1H-inden-2-yl}-3-oxopropyl)carbamate]",25%,7%,–
"CC(=O)NCC(=O)C1C(=O)c2ccc(Oc3ccc4c(c3)C(=O)C(C(=O)CNC(C)=O)C4=O)cc2C1=O (stereo not shown) [Example 298, N-[2-(5-{[2-(2-acetamidoacetyl)-1,3-dioxo-2,3-dihydro-1H-inden-5-yl]oxy}-1,3-dioxo-2,3-dihydro-1H-inden-2-yl)-2-oxoethyl]acetamide]",–,–,"% inhibition of PF4 tetramer formation at single concentration of inhibitor (1 μM inhibitor, 1 µM): 32%; % inhibition of PF4 tetramer formation at single concentration of inhibitor (3 μM inhibitor (column A), 3 µM): 60%"
"O=C1c2ccc(S(=O)(=O)c3ccc4c(c3)C(=O)C(C(=O)C3CCOC3)C4=O)cc2C(=O)C1C(=O)C1CCOC1 (stereo not shown) [Example 147, 5-{[1,3-dioxo-2-(oxolane-3-carbonyl)-2,3-dihydro-1H-inden-5-yl]sulfonyl}-2-(oxolane-3-carbonyl)-2,3-dihydro-1H-indene-1,3-dione]",–,–,"inhibition at 5 µM (5 μM inhibitor, read-out: % inhibition of PF4 tetramer formation at single concentration of inhibitor): 55%; inhibition at 10 µM (10 μM inhibitor (column A), read-out: % inhibition of PF4 tetramer formation at single concentration of inhibitor): 59%"
"O=C1c2ccc(S(=O)(=O)c3ccc4c(c3)C(=O)C(C(=O)C3CCC3)C4=O)cc2C(=O)C1C(=O)C1CCC1 (stereo not shown) [Example 296, 2-cyclobutanecarbonyl-5-[(2-cyclobutanecarbonyl-1,3-dioxo-2,3-dihydro-1H-inden-5-yl)sulfonyl]-2,3-dihydro-1H-indene-1,3-dione]",36%,22%,–
"O=C1c2ccc(Oc3ccc4c(c3)C(=O)C(C(=O)C3CCC3)C4=O)cc2C(=O)C1C(=O)C1CCC1 (stereo not shown) [Example 297, 2-cyclobutanecarbonyl-5-[(2-cyclobutanecarbonyl-1,3-dioxo-2,3-dihydro-1H-inden-5-yl)oxy]-2,3-dihydro-1H-indene-1,3-dione]",100%,38%,IC50: 1740 nM
